The target in assay [1] is Aurora kinase B (Homo sapiens, UniProt Q96GD4). Description: Percentage Aurora B activity remaining in the presence of 25uM inhibitor.
Assay [2] concerns the target T1, Serine/threonine-protein kinase D1 (Homo sapiens) (UniProt Q15139).
T1 sequence (whole entry): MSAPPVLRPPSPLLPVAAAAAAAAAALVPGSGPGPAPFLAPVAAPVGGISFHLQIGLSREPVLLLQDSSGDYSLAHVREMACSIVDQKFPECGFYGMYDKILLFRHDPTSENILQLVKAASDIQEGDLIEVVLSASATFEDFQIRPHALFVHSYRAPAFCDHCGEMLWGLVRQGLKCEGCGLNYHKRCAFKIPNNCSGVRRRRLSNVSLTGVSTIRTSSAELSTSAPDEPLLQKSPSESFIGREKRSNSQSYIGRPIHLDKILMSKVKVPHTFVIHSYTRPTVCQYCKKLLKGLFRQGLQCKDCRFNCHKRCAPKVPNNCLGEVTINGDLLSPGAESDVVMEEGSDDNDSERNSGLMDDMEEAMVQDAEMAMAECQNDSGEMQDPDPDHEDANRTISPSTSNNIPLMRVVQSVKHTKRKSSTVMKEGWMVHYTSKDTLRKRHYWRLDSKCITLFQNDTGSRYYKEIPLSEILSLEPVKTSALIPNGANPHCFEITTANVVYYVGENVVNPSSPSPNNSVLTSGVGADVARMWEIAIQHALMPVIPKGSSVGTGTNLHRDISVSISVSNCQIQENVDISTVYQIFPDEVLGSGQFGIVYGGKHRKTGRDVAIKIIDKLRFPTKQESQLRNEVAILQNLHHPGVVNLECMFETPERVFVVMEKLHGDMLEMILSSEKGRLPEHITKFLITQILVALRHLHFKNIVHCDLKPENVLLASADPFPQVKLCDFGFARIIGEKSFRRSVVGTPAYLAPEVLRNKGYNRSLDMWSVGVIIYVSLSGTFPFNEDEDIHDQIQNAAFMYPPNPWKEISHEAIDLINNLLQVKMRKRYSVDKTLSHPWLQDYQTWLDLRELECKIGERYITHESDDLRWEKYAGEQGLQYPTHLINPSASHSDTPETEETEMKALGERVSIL
Description: Percentage PKD1 activity remaining in the presence of 25uM inhibitor.

Assay [3] addresses cAMP-dependent protein kinase catalytic subunit alpha (Homo sapiens, UniProt P17612). Description: Percentage PKA activity remaining in the presence of […]uM inhibitor. The conditions noted are these: at 25 µM.
In assay [4] the target is T2, Eukaryotic elongation factor 2 kinase (Homo sapiens) (UniProt O00418).
T2 sequence (whole entry): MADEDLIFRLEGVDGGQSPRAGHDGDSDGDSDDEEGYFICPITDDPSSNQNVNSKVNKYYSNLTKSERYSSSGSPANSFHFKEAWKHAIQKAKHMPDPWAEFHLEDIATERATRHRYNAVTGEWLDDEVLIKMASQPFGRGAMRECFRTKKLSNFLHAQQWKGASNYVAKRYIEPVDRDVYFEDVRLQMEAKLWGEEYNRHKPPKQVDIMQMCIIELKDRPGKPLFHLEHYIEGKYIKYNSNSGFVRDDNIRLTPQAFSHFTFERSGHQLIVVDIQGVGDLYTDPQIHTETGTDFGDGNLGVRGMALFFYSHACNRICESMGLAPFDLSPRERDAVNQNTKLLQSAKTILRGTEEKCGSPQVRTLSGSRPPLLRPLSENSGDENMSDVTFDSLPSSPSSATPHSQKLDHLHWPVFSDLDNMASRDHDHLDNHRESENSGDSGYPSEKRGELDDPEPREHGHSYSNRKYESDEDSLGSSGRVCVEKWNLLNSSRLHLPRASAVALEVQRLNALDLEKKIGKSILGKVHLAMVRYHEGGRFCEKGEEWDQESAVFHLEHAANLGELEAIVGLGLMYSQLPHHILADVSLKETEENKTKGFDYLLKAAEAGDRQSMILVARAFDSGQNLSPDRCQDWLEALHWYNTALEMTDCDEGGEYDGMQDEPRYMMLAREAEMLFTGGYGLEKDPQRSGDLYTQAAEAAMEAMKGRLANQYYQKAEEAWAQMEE
The assay is described as follows: Percentage EF2K activity remaining in the presence of 25uM inhibitor.

In assay [5] the target is T3, Serine/threonine-protein kinase 3 (Homo sapiens) (UniProt Q13188).
T3 sequence (whole entry): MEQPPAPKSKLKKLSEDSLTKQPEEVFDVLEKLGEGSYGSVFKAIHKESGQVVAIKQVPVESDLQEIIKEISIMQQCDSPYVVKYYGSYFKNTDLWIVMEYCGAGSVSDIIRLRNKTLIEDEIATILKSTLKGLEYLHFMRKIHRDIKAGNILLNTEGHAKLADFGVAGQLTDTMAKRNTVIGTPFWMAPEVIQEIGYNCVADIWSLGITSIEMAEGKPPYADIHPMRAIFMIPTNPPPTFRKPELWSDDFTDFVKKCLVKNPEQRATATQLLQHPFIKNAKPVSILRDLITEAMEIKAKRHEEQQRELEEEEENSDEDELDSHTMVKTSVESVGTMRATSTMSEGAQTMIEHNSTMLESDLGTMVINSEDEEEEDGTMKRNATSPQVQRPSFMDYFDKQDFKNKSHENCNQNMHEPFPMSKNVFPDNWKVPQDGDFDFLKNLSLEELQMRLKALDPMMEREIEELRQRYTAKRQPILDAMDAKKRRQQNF
Description: Percentage MST2 activity remaining in the presence of 25uM inhibitor.

Assay [6] has as its target Casein kinase I isoform delta (Homo sapiens, UniProt P48730). Description: Percentage CK1delta activity remaining in the presence of 25uM inhibitor. To be noted: filed as antagonist.
The target in assay [7] is T4, MAP kinase-activated protein kinase 5 (Homo sapiens) (UniProt Q8IW41).
T4 sequence (whole entry): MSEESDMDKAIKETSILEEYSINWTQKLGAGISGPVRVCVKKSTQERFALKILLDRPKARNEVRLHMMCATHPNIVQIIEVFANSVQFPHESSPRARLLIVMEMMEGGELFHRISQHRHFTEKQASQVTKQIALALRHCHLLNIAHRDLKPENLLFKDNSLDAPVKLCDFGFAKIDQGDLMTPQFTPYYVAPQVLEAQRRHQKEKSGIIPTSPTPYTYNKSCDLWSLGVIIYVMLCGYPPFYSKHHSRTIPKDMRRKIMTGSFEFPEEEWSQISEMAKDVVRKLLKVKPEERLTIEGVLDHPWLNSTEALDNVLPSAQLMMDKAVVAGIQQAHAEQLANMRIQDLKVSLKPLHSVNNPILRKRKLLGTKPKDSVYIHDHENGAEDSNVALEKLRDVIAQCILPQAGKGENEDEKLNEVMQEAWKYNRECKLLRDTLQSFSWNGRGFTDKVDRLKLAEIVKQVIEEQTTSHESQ
Description: Percentage PRAK activity remaining in the presence of 25uM inhibitor.

The results in this text go back to ChEMBL document CHEMBL1150976, “The selectivity of protein kinase inhibitors: a further update” (Biochem J, 2007).

SMILES strings stand for the structures.

Aurora kinase B, sequence (Q96GD4 whole entry): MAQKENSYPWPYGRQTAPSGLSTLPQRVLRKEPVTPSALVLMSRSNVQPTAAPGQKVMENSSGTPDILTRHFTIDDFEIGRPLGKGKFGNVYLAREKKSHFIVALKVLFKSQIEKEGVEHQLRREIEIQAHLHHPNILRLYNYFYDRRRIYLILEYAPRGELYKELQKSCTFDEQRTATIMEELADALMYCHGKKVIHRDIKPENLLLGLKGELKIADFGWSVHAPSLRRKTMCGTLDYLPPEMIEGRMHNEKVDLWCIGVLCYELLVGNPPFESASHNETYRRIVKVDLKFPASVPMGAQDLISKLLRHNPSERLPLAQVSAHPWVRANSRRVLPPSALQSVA
Casein kinase I isoform delta, sequence (P48730 whole entry, looked up, canonical isoform): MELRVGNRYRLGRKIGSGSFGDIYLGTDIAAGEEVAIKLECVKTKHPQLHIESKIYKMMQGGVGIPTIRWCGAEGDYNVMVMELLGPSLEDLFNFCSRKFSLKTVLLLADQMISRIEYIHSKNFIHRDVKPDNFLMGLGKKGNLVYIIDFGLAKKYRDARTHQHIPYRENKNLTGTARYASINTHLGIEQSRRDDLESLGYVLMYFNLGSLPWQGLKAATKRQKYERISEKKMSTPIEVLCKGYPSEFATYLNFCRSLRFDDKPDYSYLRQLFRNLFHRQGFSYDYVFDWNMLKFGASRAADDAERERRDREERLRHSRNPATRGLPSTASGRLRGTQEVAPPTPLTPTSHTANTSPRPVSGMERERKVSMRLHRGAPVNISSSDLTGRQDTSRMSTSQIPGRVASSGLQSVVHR

Regarding `COc1cc(OC)c(/C=C2/C(=O)Nc3ccccc32)c(OC)c1`, the Activity in assay [1] was 75%; in assay [2] it was 62%; in assay [3], 82%; in assay [4] it was 100%; in assay [5], 70%; in assay [6], 9%. Moreover, the Activity in assay [7] came out at 82%.
In the case of `NCCNS(=O)(=O)c1ccc(Cl)c2ccncc12`, the Activity in assay [1] is 78%; in assay [2], 60%; in assay [3] it was 65%; in assay [4], 94%; in assay [5] it was 91%; in assay [6] it was 12%. Further, in assay [7], the Activity stood at 81%.
